Test results as given in patent US20020128232A1, “Heterocyclic angiogenesis inhibitors” (priority 2000, published 2002).
Where a name gives a salt, the structure may show the parent alone. Read-outs that look alike come from different tables or passages of the source. Marks after values point to notes of the source that are not given here.

System: rat aorta ring
Assay: Rat aorta assay for angiogenesis inhibition (rat aorta ring model, micro-vessel growth scored)
Format: cell-based
Conditions: for inhibition at 100 µg/mL / inhibition at 20 µg/mL / inhibition at 50 µg/mL / inhibition at 4 µg/mL / inhibition at 10 µg/mL: Rattus norvegicus
Source text: The rat aorta ring model based on that described by Nicosia and Ottinetti (Nicosia, R. F. et al., Lab. Investigation 63: 115, 1990; Nicosia, R. F. et al., Cell. Dev. Bio. 26: 119-128, 1990), was used throughout the assay.
The agarose was made up as a 1.5% solution in distilled water and brought to the boil to form a clear solution which was poured into sterile 9 cm petri dishes, covered and allowed to cool and set.
Maintaining sterile conditions, agarose rings were obtained by punching two concentric circles, with sterile 10 and 17 mm hole punches, respectively, in the agarose gel. Using sterile forceps, the rings are removed and placed, three per well in each of the 6-well plates.
The MEM was prepared according to manufacturer's directions, but before filtering through a 0.22 μm filter, HEPES and L-glutamine were added to give 10 mM and 1 mM concentrations respectively with pH adjusted to 7.4. Eight hundred mL of this medium were filtered through a 0.2 μm filter along with the antibiotics (50 mg/L Gentamycin sulphate and 2.5 mg/L Amphotericin B) and 200 mL of FCS (to give 20%) to yield one liter of medium.
The aorta was removed from a 3-4 month male Copenhagen rat and transferred to a dissecting dish where it was cleaned and carefully stripped of the fibroadipose tissue surrounding it. Rings of 0.5 mm were cut, using a fresh scalpel blade, from the length of the aorta. These were kept under sterile conditions in a biohazard hood where they were washed 12 times with MEM.
Before transferring the aortic rings to the culture plate, the bottom of each agarose well was coated with 150 μL of clotting fibrinogen. Fibrinogen was made up as a […] solution in MEM, while Thrombin made up in distilled water to give a concentration of 50 U/mL. The fibrinogen (1 mL) and the thrombin (20 μL) reacted within 30 sec to form a solid gel.
The aortic rings were transferred to the 6-well plates, with one ring placed in the center of each agarose well. Fresh fibrinogen/thrombin was made up as before and 150 μL was used to seal in each aortic ring. The gels were rested for approximately 2 hours before the medium was added.
[…] The compounds were made up as 6 mg/mL solution in water or DMSO. The test solutions were added to each well with the medium.
Six mL of MEM were carefully added to each of three wells to become the controls. MEM, along with the test compounds were added to the remaining wells and all were covered and transferred to the CO2 Incubator at 37° C., where they were kept for the next 14 days.
However, by the fifth day, there were noticeable changes in the tissue. Micro-vessels were seen and scored. We have based the scoring method on that used by Liekens et al., (Liekins, S. et al., Oncol. Res. 9: 173-181, 1997) in which 0 meant no vessels and 10 meant maximum vessels; the score is then converted into a percentage inhibition of vessel growth.

[1] = 120 h, 100 μg/ml, day 5, read-out: Growth Inhibition Day 5 (%)
[2] = 264 h, 100 μg/ml, day 11, read-out: Growth Inhibition Day 11 (%)
[3] = 100 μg/ml, test slow to establish, read after 15 days (footnote *), read-out: Growth inhibition after 15 days
[4] = 120 h, 20 μg/ml, day 5, read-out: Growth Inhibition Day 5 (%)
[5] = 120 h, 50 μg/ml, day 5, read-out: Growth Inhibition Day 5 (%)
[6] = 264 h, 20 μg/ml, day 11, read-out: Growth Inhibition Day 11 (%)
[7] = 264 h, 50 μg/ml, day 11, read-out: Growth Inhibition Day 11 (%)
[8] = 120 h, 10 μg/ml, day 5, read-out: Growth Inhibition Day 5 (%)

O=C(Nc1cccc(B(O)O)c1)n1c(=O)[nH]c2ccccc21 [Example 2, N-(Phenyl-3-boronic acid)-2,3-dihydro-2-oxo-1H-benzimidazole-1-carboxamide]
Growth Inhibition Day 5 (%) (4 μg/ml, day 5): 50% | Growth Inhibition Day 11 (%) (4 μg/ml, day 11): 0% | Growth Inhibition Day 5 (%) (20 μg/ml, day 5): 100% | Growth Inhibition Day 11 (%) (20 μg/ml, day 11): 100% | Growth Inhibition Day 5 (%) (50 μg/ml, day 5): 100% | Growth Inhibition Day 11 (%) (50 μg/ml, day 11): 100% | Growth inhibition after 15 days (100 μg/ml, test slow to establish, read after 15 days (footnote *)): 100* %

O=C(O)c1cccc(NC(=O)n2c(=O)[nH]c3ccccc32)c1 [Example 3, N-(3-Carboxyphenyl)-2,3-dihydro-2-oxo-1H-benzimidazole-1-carboxamide]
inhibition at 100 µg/mL [1]: 60% | inhibition at 100 µg/mL [2]: 60%

O=C(O)c1ccc(NC(=O)n2c(=O)[nH]c3ccccc32)cc1 [Example 4, N-(4-Carboxyphenyl)-2,3-dihydro-2-oxo-1H-benzimidazole-1-carboxamide]
inhibition at 100 µg/mL [3]: 100% | inhibition at 20 µg/mL [4]: 100% | inhibition at 50 µg/mL [5]: 90% | inhibition at 20 µg/mL [6]: 70% | inhibition at 50 µg/mL [7]: 95%

O=C(O)c1ccccc1NC(=O)n1c(=O)[nH]c2ccccc21 [Example 5, N-(2-Carboxyphenyl)-2,3-dihydro-2-oxo-1H-benzimidazole-1-carboxamide]
inhibition at 100 µg/mL [3]: 90% | inhibition at 20 µg/mL [4]: 0% | inhibition at 50 µg/mL [5]: 10% | inhibition at 20 µg/mL [6]: 0% | inhibition at 50 µg/mL [7]: 0%

O=C(O)Cc1ccc(NC(=O)n2c(=O)[nH]c3ccccc32)cc1 [Example 7, N-(4-Carboxymethylphenyl)-2,3-dihydro-2-oxo-1H-benzimidazole-1-carboxamide]
inhibition at 100 µg/mL [3]: 100% | inhibition at 20 µg/mL [4]: 80% | inhibition at 50 µg/mL [5]: 80% | inhibition at 20 µg/mL [6]: 0% | inhibition at 50 µg/mL [7]: 100%

CCOC(=O)c1cccc(NC(=O)n2c(=O)[nH]c3ccccc32)c1 [Example 9, N-(3-Ethoxycarbonylphenyl)-2,3-dihydro-2-oxo-1H-benzimidazole-1-carboxamide]
inhibition at 100 µg/mL [1]: 70% | inhibition at 100 µg/mL [2]: 10%

O=C(Nc1ccccc1)n1c(=S)[nH]c2ccccc21 [Example 11, 2-Thioxo-2,3-dihydrobenzoimidazole-1-carboxylic acid phenylamide]
inhibition at 4 µg/mL (120 h, 4 μg/ml, day 5): 0% | inhibition at 50 µg/mL [5]: 100%

O=C(C1CCCN1)n1c(=O)[nH]c2ccccc21 (stereo not drawn) [Example 12, 1-(Pyrrolidine-2-carbonyl)-1,3-dihydrobenzoimidazol-2-one trifluoroacetic acid salt]
inhibition at 4 µg/mL (120 h, 4 μg/ml, day 5): 50% | inhibition at 20 µg/mL [4]: 70%

C=CCNC(=O)n1c(=O)[nH]c2ccccc21 [Example 13, 2-Oxo-2,3-dihydrobenzoimidazole-1-carboxylic acid allylamide]
inhibition at 4 µg/mL (120 h, 4 μg/ml, day 5): 0% | inhibition at 20 µg/mL [4]: 20%

O=C(Nc1ccccc1)n1c(=O)[nH]c2cncnc21 [Example 14, 8-Oxo-7,8-dihydropurine-9-carboxylic acid phenylamide]
inhibition at 4 µg/mL (120 h, 4 μg/ml, day 5): 20% | inhibition at 20 µg/mL [4]: 40% | inhibition at 50 µg/mL [5]: 20%

CC(C)(C)c1ccc(NC(=O)n2c(=O)[nH]c3ccccc32)cc1 [Example 16, 2-Oxo-2,3-dihydrobenzoimidazole-1-carboxylic acid (4-t-butylphenyl)amide]
inhibition at 10 µg/mL [8]: 10%

O=C(Nc1ccccc1)n1c(=O)[nH]c2ccccc21 [Example 17, 2-Oxo-2,3-dihydrobenzimidazole-1-carboxylic acid phenylamide]
inhibition at 4 µg/mL (120 h, 4 μg/ml, day 5): 50% | inhibition at 20 µg/mL [4]: 30% | inhibition at 50 µg/mL [5]: 95%

O=C1NS(=O)(=O)c2ccc(NC(=O)n3c(=O)[nH]c4ccccc43)cc21 [Example 20, 2-oxo-2,3-dihydrobenzimidazole-1-carboxylic acid (1,1,3-trioxo-2,3-dihydro-1H-1λ^6-benzo[d]isothiazol-5-yl)amide]
inhibition at 10 µg/mL [8]: 100% | inhibition at 10 µg/mL (264 h, 10 μg/ml, day 11, read-out: Growth Inhibition Day 11 (%)): 70%

O=C(O)c1cc(NC(=O)n2c(=O)[nH]c3ccccc32)cc(C(=O)O)c1 [Example 23, 5-[(2-oxo-2,3-dihydrobenzimidazole-1-carbonyl)-amino]isophthalic acid]
inhibition at 10 µg/mL [8]: 10%

O=C(Nc1ccc(OP(=O)(O)O)cc1)n1c(=O)[nH]c2ccccc21 [Example 26, Phosphoric acid mono-{4[(2-oxo-2,3-dihydrobenzimidazole-1-carbonyl)-amino]-phenyl} ester]
inhibition at 10 µg/mL (120 h, read-out: Growth Inhibition Day 5 (%)): 90% | inhibition at 10 µg/mL (264 h, read-out: Growth Inhibition Day 11 (%)): 40%

O=C(Nc1ccc(B(O)O)cc1)n1c(=O)[nH]c2ccccc21 [Example 28, N-(phenyl-4-boronic acid)-2,3-dihydro-2-oxo-1H-benzimidazole-1-carboxamide]
Growth Inhibition Day 11 (%) (4 μg/ml, day 11): 20% | Growth Inhibition Day 11 (%) (10 μg/ml, day 11): 20%

O=C([O-])c1cccc(NC(=O)n2c(=O)[nH]c3ccccc32)c1.[Na+] [Sodium salt of 3, N-(3-Carboxyphenyl)-2,3-dihydro-2-oxo-1H-benzimidazole-1-carboxamide Sodium Salt]
Growth Inhibition Day 5 (%) (100 μg/ml, day 5): 70% | Growth Inhibition Day 11 (%) (100 μg/ml, day 11): 80%
